Source: patent US11840528B2 (Hoffmann-La Roche Inc., priority 2018, dated 2023)

How the values were obtained:
h-GABA-A α5β3γ2 [1] = molecular target: T1, h-GABA-A α5β3γ2 (Homo sapiens, UniProt P18507+P31644); test: [3H]flumazenil competition binding assay, membranes of HEK293 cells expressing GABAA receptors
Outline: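 Receptor source: human α5β3γ2 transiently transfected into HEK293 cells, membranes in pH 7.5 Krebs-tris. Filtration through GF/C, then scintillation counting.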

h-GABA-A α5β3γ2 [2] = molecular target: T1, h-GABA-A α5β3γ2; test: Two-electrode voltage clamp electrophysiology in Xenopus laevis oocytes expressing GABAA receptors, modulation of GABA EC20 current; type: cell-based; set-up: host or cells: Xenopus laevis oocytes micro-injected with RNA transcripts of the subunits
Outline: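 Modulation is reported as % of the GABA EC20 current, calculated as 100*(Fold increase−1) from the peak ratio between a second GABA response carrying compound (applied at roughly 30-fold Ki) and a preceding control response. Oocytes expressing human α5β3γ2 were clamped at −80 mV at room temperature, 3–5 days after injection.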

[3] = displacement of [3H]-Flumazenil 0.5 nM, HEK293 cells expressing human receptors, mean of two determinations, Table 1
[4] = % modulation of GABA EC20 = 100*(Fold increase-1), Table 1
[5] = test compound at approx. 30 fold its Ki, GABA at EC20, Table 1

| Structure (SMILES) | Ki (h-GABA-A α5β3γ2 [1]; [3]) [nM] | Efficacy (GABA) % (h-GABA-A α5β3γ2 [2]; [4]) [%] | Fold increase h-GABA-A α5β3γ2 oocyte (h-GABA-A α5β3γ2 [2]; [5]) | Ki (h-GABA-A α5β3γ2 [1]; reference compounds, Table 2) [nM] | Efficacy (GABA) % (h-GABA-A α5β3γ2 [2]; reference compounds, % modulation of GABA EC20, Table 2) [%] | Fold increase h-GABA-A α5β3γ2 oocyte (h-GABA-A α5β3γ2 [2]; reference compounds, Table 2) |
| --- | --- | --- | --- | --- | --- | --- |
| COc1ccc(-c2cnn(Cc3c(-c4ccc(C)nc4)noc3C)c(=O)c2)cc1OC [Example 113, 5-(3,4-dimethoxyphenyl)-2-((5-methyl-3-(6-methyl-3-pyridyl)isoxazol-4-yl)methyl)pyridazin-3-one] | 7.8 | 91 | 1.91 | – | – | – |
| Cc1onc(-c2ccc(Cl)nc2)c1Cn1ncc(N2CC(OC3CC3)C2)cc1=O [Example 224, 2-((3-(6-chloropyridin-3-yl)-5-methylisoxazol-4-yl)methyl)-5-(3-cyclopropoxyazetidin-1-yl)pyridazin-3(2H)-one] | 12.8 | 124 | 2.24 | – | – | – |
| Cc1ccc(-c2noc(C)c2Cn2ncc(-c3cnn(C)c3)cc2=O)cn1 [Example 103, 2-((5-methyl-3-(6-methyl-3-pyridyl)isoxazol-4-yl)methyl)-5-(1-methylpyrazol-4-yl)pyridazin-3-one] | 29.7 | 141 | 2.41 | – | – | – |
| Cc1onc(-c2ccc(Cl)cn2)c1Cn1ncc(N2CC(OCC3CC3)C2)cc1=O [Example 143, 2-((3-(5-Chloropyridin-2-yl)-5-methylisoxazol-4-yl)methyl)-5-(3-(cyclopropylmethoxy)azetidin-1-yl)pyridazin-3(2H)-one] | 3.3 | 68 | 1.68 | – | – | – |
| Cc1onc(-c2ccc(F)cc2)c1Cn1ncc(N2CCN(C(=O)C3(C)CC3)CC2)cc1=O [Example 15, 2-((3-(4-Fluorophenyl)-5-methylisoxazol-4-yl)methyl)-5-(4-(1-methylcyclopropanecarbonyl)piperazin-1-yl)pyridazin-3(2H)-one] | 35.2 | 120 | 2.2 | – | – | – |
| Cc1onc(-c2ccccc2)c1COc1ccc(C(=O)N2CCOCC2)nn1 [RO-096, reference compound] | – | – | – | 26 | −16 | 0.84 |
| COc1ncc(-c2cnn(Cc3c(-c4ccc(C)nc4)noc3C)c(=O)c2)cc1F [Example 183, 5-(5-fluoro-6-methoxypyridin-3-yl)-2-((5-methyl-3-(6-methylpyridin-3-yl)isoxazol-4-yl)methyl)pyridazin-3(2H)-one] | 28.7 | 137 | 2.37 | – | – | – |
| Cc1ccc(-c2noc(CF)c2Cn2ncc(N3CC4(CCCO4)C3)cc2=O)nn1 [Example 295, 2-((5-(fluoromethyl)-3-(6-methylpyridazin-3-yl)isoxazol-4-yl)methyl)-5-(5-oxa-2-azaspiro[3.4]octan-2-yl)pyridazin-3(2H)-one] | 16 | 74 | 1.74 | – | – | – |
| COC1CN(c2cnn(Cc3c(-c4ccc(Cl)nn4)noc3C)c(=O)c2)C1 [Example 252, 2-((3-(6-chloropyridazin-3-yl)-5-methylisoxazol-4-yl)methyl)-5-(3-methoxyazetidin-1-yl)pyridazin-3(2H)-one] | 4.2 | 86 | 1.86 | – | – | – |
| Cc1onc(-c2ccc(Cl)cc2)c1Cn1ncc(N2CC3(CCCO3)C2)cc1=O [Example 162, 2-[[3-(4-chlorophenyl)-5-methyl-isoxazol-4-yl]methyl]-5-(5-oxa-2-azaspiro[3.4]octan-2-yl)pyridazin-3-one] | 18.8 | 40 | 1.4 | – | – | – |
| Cc1cc(-c2noc(C)c2Cn2ncc(N3CC(OCC4CC4)C3)cc2=O)no1 [Example 141, 5-[3-(cyclopropylmethoxy)azetidin-1-yl]-2-[[5-methyl-3-(5-methylisoxazol-3-yl)isoxazol-4-yl]methyl]pyridazin-3-one] | 16 | 107 | 2.07 | – | – | – |
| Cc1ccc(-c2noc(C)c2Cn2ncc(N3CCN4C(=O)CCC4C3)cc2=O)cn1 (stereo not drawn) [Example 43, 2-(1-((5-methyl-3-(6-methylpyridin-3-yl)isoxazol-4-yl)methyl)-6-oxo-1,6-dihydropyridazin-4-yl)hexahydropyrrolo[1,2-a]pyrazin-6(2H)-one] | 10 | 174 | 2.74 | – | – | – |
| Cc1ccc(-c2noc(C)c2Cn2ncc(N3CC4(CCCCC4)C3)cc2=O)cn1 [Example 195] | 17.2 | 118 | 2.18 | – | – | – |
| Cc1ccc(-c2noc(C)c2Cn2ncc(N3CC4(CCC(F)CO4)C3)cc2=O)nn1 (single isomer, unassigned) [Example 288] | 3.2 | 63 | 1.63 | – | – | – |
| Cc1onc(-c2ccc(Cl)nc2)c1Cn1ncc(-c2cnn(C)c2)cc1=O [Example 215, 2-((3-(6-chloropyridin-3-yl)-5-methylisoxazol-4-yl)methyl)-5-(1-methyl-1H-pyrazol-4-yl)pyridazin-3(2H)-one] | 50 | 119 | 2.19 | – | – | – |
| Cc1ccc(-c2noc(C)c2Cn2ncc(N3CCN4C(=O)OCC4C3)cc2=O)cn1 (stereo not drawn) [Example 44, 7-(1-((5-methyl-3-(6-methylpyridin-3-yl)isoxazol-4-yl)methyl)-6-oxo-1,6-dihydropyridazin-4-yl)tetrahydro-1H-oxazolo[3,4-a]pyrazin-3(5H)-one] | 9.5 | 181 | 2.81 | – | – | – |
| Cc1ccc(-c2noc(C)c2Cn2ncc(N3CCC(O)CC3)cc2=O)cn1 [Example 5, 5-(4-hydroxy-1-piperidyl)-2-[[5-methyl-3-(6-methyl-3-pyridyl)isoxazol-4-yl]methyl]pyridazin-3-one] | 1.6 | 155 | 2.55 | – | – | – |
| CCO[C@@H]1CN(c2cnn(Cc3c(-c4ccc(Cl)nc4)noc3C)c(=O)c2)[C@@H]1C [Example 294, 2-((3-(6-chloropyridin-3-yl)-5-methylisoxazol-4-yl)methyl)-5-((2R,3R)-3-ethoxy-2-methylazetidin-1-yl)pyridazin-3(2H)-one] | 41.8 | 117 | 2.17 | – | – | – |
| Cc1onc(-c2ccc(Cl)nc2)c1Cn1ncc(N2CC(OC(F)F)C2)cc1=O [Example 255, 2-((3-(6-chloropyridin-3-yl)-5-methylisoxazol-4-yl)methyl)-5-(3-(difluoromethoxy)azetidin-1-yl)pyridazin-3(2H)-one] | 14.6 | 99 | 1.99 | – | – | – |
| Cc1ccc(-c2noc(CF)c2Cn2ncc(N3CC4(CCCCO4)C3)cc2=O)nn1 [Example 328, 2-((5-(fluoromethyl)-3-(6-methylpyridazin-3-yl)isoxazol-4-yl)methyl)-5-(5-oxa-2-azaspiro[3.5]nonan-2-yl)pyridazin-3(2H)-one] | 12.6 | 70 | 1.7 | – | – | – |
| COc1ncccc1N1CCN(c2cnn(Cc3c(-c4ccc(C)nc4)noc3C)c(=O)c2)CC1 [Example 101, 5-[4-(2-methoxy-3-pyridyl)piperazin-1-yl]-2-[[5-methyl-3-(6-methyl-3-pyridyl)isoxazol-4-yl]methyl]pyridazin-3-one] | 3.2 | 146 | 2.46 | – | – | – |
| Cc1onc(-c2ccc(Cl)nc2)c1Cn1ncc(N2CC(OCC(F)F)C2)cc1=O [Example 245, 2-((3-(6-chloropyridin-3-yl)-5-methylisoxazol-4-yl)methyl)-5-(3-(2,2-difluoroethoxy)azetidin-1-yl)pyridazin-3(2H)-one] | 18.7 | 106 | 2.06 | – | – | – |
| Cc1ccc(-c2noc(C)c2Cn2ncc(N3CCO[C@@H](C)C3)cc2=O)cn1 [Example 89, 2-[[5-methyl-3-(6-methyl-3-pyridyl)isoxazol-4-yl]methyl]-5-[(2S)-2-methylmorpholin-4-yl]pyridazin-3-one] | 1.4 | 189 | 2.89 | – | – | – |
| COC1CN(c2cnn(Cc3c(-c4ccc(Cl)nc4)noc3C)c(=O)c2)C1 [Example 212, 2-((3-(6-chloropyridin-3-yl)-5-methylisoxazol-4-yl)methyl)-5-(3-methoxyazetidin-1-yl)pyridazin-3(2H)-one] | 41.6 | 118 | 2.18 | – | – | – |
